Laboratory results from ChEMBL document CHEMBL1201862, “PubChem BioAssay data set” (2004).
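Results reflect a 48-hour exposure of cells in 96-well plates to compound at five concentrations. The concentration for 50% growth inhibition is given as GI50.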 Active and inactive are the calls of the source. Rule as the data show it: active = GI50 up to about 1.1 µM and inactive = higher.

Assays:
Test in all cases: NCI-60 cell line screen, 48 h
OVCAR-3 = tested on: OVCAR-3
OVCAR-4 = tested on: OVCAR-4
HOP-62 = tested on: HOP-62
MOLT-4 = tested on: MOLT-4
HOP-92 = tested on: HOP-92
KM12 = tested on: KM12
SNB-75 = tested on: SNB-75
NCI-H460 = tested on: NCI-H460
SF-295 = tested on: SF-295
T47D = tested on: T47D
SK-MEL-2 = tested on: SK-MEL-2
SNB-19 = tested on: SNB-19
SK-MEL-28 = tested on: SK-MEL-28
HL-60 = tested on: HL-60
PC-3 = tested on: PC-3
SW-620 = tested on: SW-620
MCF7 = tested on: MCF7
OVCAR-8 = tested on: OVCAR-8
NCI/ADR-RES = tested on: NCI/ADR-RES
SF-539 = tested on: SF-539
SK-MEL-5 = tested on: SK-MEL-5
A549 = tested on: A549
HCT-116 = tested on: HCT-116
HCT-15 = tested on: HCT-15
DU-145 = tested on: DU-145
COLO 205 = tested on: COLO 205
786-0 = tested on: 786-0
MDA-MB-231 = tested on: MDA-MB-231
MDA-MB-435 = tested on: MDA-MB-435
EKVX = tested on: EKVX
SN12C = tested on: SN12C
BT-549 = tested on: BT-549
UO-31 = tested on: UO-31
SK-OV-3 = tested on: SK-OV-3
HT-29 = tested on: HT-29
UACC-62 = tested on: UACC-62
OVCAR-5 = tested on: OVCAR-5
NCI-H226 = tested on: NCI-H226
M14 = tested on: M14
IGROV-1 = tested on: IGROV-1
LOX IMVI = tested on: LOX IMVI
UACC-257 = tested on: UACC-257
CAKI-1 = tested on: CAKI-1
MDA-N = tested on: MDA-N
HCC 2998 = tested on: HCC 2998
U-251 = tested on: U-251
ACHN = tested on: ACHN
TK-10 = tested on: TK-10
NCI-H23 = tested on: NCI-H23
RPMI-8226 = tested on: RPMI-8226
RXF 393 = tested on: RXF 393
CCRF-CEM = tested on: CCRF-CEM
K562 = tested on: K562
SR = tested on: SR
NCI-H522 = tested on: NCI-H522
A498 = tested on: A498
Malme-3M = tested on: Malme-3M
Hs-578T = tested on: Hs-578T
SF-268 = tested on: SF-268

## CCCCCCCCCCCCCCCCCCNC(=S)N/C=C1/C(=O)C=C(C)OC1=O
OVCAR-3
  GI50: 32.1 µM (inactive)
OVCAR-4
  GI50: 23.7 µM (inactive)
HOP-62
  GI50: 31.8 µM (inactive)
MOLT-4
  GI50: 12.7 µM (inactive)
HOP-92
  GI50: 27.3 µM (inactive)
KM12
  GI50: 16.6 µM (inactive)
SNB-75
  GI50: 14.3 µM (inactive)
NCI-H460
  GI50: 13.1 µM (inactive)
SF-295
  GI50: 23.8 µM (inactive)
T47D
  GI50: 31 µM (inactive)
SK-MEL-2
  GI50: 21.4 µM (inactive)
SNB-19
  GI50: 20.4 µM (inactive)
SK-MEL-28
  GI50: 32.4 µM (inactive)
HL-60
  GI50: 3.31 µM (inactive)
PC-3
  GI50: 17 µM (inactive)
SW-620
  GI50: 27.4 µM (inactive)
MCF7
  GI50: 29.9 µM (inactive)
OVCAR-8
  GI50: 23.8 µM (inactive)
NCI/ADR-RES
  GI50: 28.6 µM (inactive)
SF-539
  GI50: 24.3 µM (inactive)
SK-MEL-5
  GI50: 29.6 µM (inactive)
A549
  GI50: 25.9 µM (inactive)
HCT-116
  GI50: 30.1 µM (inactive)
HCT-15
  GI50: 15.7 µM
DU-145
  GI50: 24.9 µM (inactive)
COLO 205
  GI50: 27.7 µM (inactive)
786-0
  GI50: 29.6 µM (inactive)
MDA-MB-231
  GI50: 33 µM (inactive)
MDA-MB-435
  GI50: 23.7 µM (inactive)
EKVX
  GI50: 20.6 µM (inactive)
SN12C
  GI50: 37.8 µM (inactive)
BT-549
  GI50: 19.1 µM (inactive)
UO-31
  GI50: 16.9 µM (inactive)
SK-OV-3
  GI50: 58.2 µM (inactive)
HT-29
  GI50: 20.8 µM (inactive)
UACC-62
  GI50: 30.2 µM (inactive)
OVCAR-5
  GI50: 18.4 µM (inactive)
NCI-H226
  GI50: 32.9 µM (inactive)
M14
  GI50: 18 µM (inactive)
IGROV-1
  GI50: 16.9 µM (inactive)
LOX IMVI
  GI50: 36.9 µM (inactive)
UACC-257
  GI50: 27.5 µM (inactive)
CAKI-1
  GI50: 23.4 µM (inactive)
MDA-N
  GI50: 36.4 µM (inactive)
HCC 2998
  GI50: 9.53 µM (inactive)
U-251
  GI50: 31.3 µM (inactive)
ACHN
  GI50: 22.9 µM (inactive)
TK-10
  GI50: 19.2 µM (inactive)
NCI-H23
  GI50: 22.8 µM (inactive)

## NC1CC(=O)c2cscc21 (stereo not given)
OVCAR-3
  GI50: 17.5 µM (inactive)
OVCAR-4
  GI50: > 100 µM (inactive)
HOP-62
  GI50: > 100 µM (inactive)
MOLT-4
  GI50: 20.6 µM (inactive)
HOP-92
  GI50: 23 µM (inactive)
KM12
  GI50: 18.4 µM (inactive)
SNB-75
  GI50: > 100 µM (inactive)
NCI-H460
  GI50: > 100 µM (inactive)
SF-295
  GI50: > 100 µM (inactive)
T47D
  GI50: 19.6 µM (inactive)
RPMI-8226
  GI50: 4.46 µM (inactive)
SK-MEL-2
  GI50: > 100 µM (inactive)
SNB-19
  GI50: 53.3 µM (inactive)
SK-MEL-28
  GI50: 37.3 µM (inactive)
HL-60
  GI50: 13.6 µM (inactive)
PC-3
  GI50: 52.7 µM (inactive)
SW-620
  GI50: 17.6 µM (inactive)
OVCAR-8
  GI50: 31 µM (inactive)
NCI/ADR-RES
  GI50: > 100 µM (inactive)
SF-539
  GI50: 37 µM (inactive)
SK-MEL-5
  GI50: > 100 µM (inactive)
A549
  GI50: 14.1 µM (inactive)
HCT-116
  GI50: 67.5 µM (inactive)
HCT-15
  GI50: 25.4 µM
DU-145
  GI50: 91.4 µM (inactive)
COLO 205
  GI50: 20.6 µM (inactive)
786-0
  GI50: 15.1 µM (inactive)
MDA-MB-231
  GI50: > 100 µM (inactive)
MDA-MB-435
  GI50: 24.1 µM (inactive)
EKVX
  GI50: > 100 µM (inactive)
SN12C
  GI50: 27.6 µM (inactive)
BT-549
  GI50: 58.9 µM (inactive)
UO-31
  GI50: 10.3 µM (inactive)
RXF 393
  GI50: > 100 µM (inactive)
SK-OV-3
  GI50: > 100 µM (inactive)
CCRF-CEM
  GI50: 16.3 µM (inactive)
HT-29
  GI50: > 100 µM (inactive)
OVCAR-5
  GI50: > 100 µM (inactive)
M14
  GI50: 31.1 µM (inactive)
IGROV-1
  GI50: > 100 µM (inactive)
LOX IMVI
  GI50: 31.8 µM (inactive)
UACC-257
  GI50: 93.5 µM (inactive)
CAKI-1
  GI50: 15.9 µM (inactive)
MDA-N
  GI50: > 100 µM (inactive)
U-251
  GI50: > 100 µM (inactive)
K562
  GI50: 42.1 µM (inactive)
TK-10
  GI50: 19.1 µM (inactive)
NCI-H23
  GI50: > 100 µM (inactive)

## CCN(CC)c1ccc2cc(C(=O)Nc3nc(C45CC6CC(CC(C6)C4)C5)cs3)c(=O)oc2c1
OVCAR-3
  GI50: > 100 µM (inactive)
SR
  GI50: > 100 µM (inactive)
OVCAR-4
  GI50: > 100 µM (inactive)
HOP-62
  GI50: > 100 µM (inactive)
MOLT-4
  GI50: > 100 µM (inactive)
NCI-H522
  GI50: > 100 µM (inactive)
HOP-92
  GI50: > 100 µM (inactive)
KM12
  GI50: > 100 µM (inactive)
NCI-H460
  GI50: > 100 µM (inactive)
SF-295
  GI50: > 100 µM (inactive)
RPMI-8226
  GI50: > 100 µM (inactive)
SNB-19
  GI50: > 100 µM (inactive)
SK-MEL-28
  GI50: > 100 µM (inactive)
HL-60
  GI50: > 100 µM (inactive)
PC-3
  GI50: > 100 µM (inactive)
SW-620
  GI50: > 100 µM (inactive)
MCF7
  GI50: > 100 µM (inactive)
OVCAR-8
  GI50: > 100 µM (inactive)
NCI/ADR-RES
  GI50: > 100 µM (inactive)
SF-539
  GI50: > 100 µM (inactive)
SK-MEL-5
  GI50: > 100 µM (inactive)
A549
  GI50: > 100 µM (inactive)
A498
  GI50: > 100 µM (inactive)
HCT-116
  GI50: > 100 µM (inactive)
HCT-15
  GI50: > 100 µM
DU-145
  GI50: > 100 µM (inactive)
COLO 205
  GI50: > 100 µM (inactive)
786-0
  GI50: > 100 µM (inactive)
MDA-MB-231
  GI50: > 100 µM (inactive)
MDA-MB-435
  GI50: > 100 µM (inactive)
EKVX
  GI50: > 100 µM (inactive)
Malme-3M
  GI50: > 100 µM (inactive)
SN12C
  GI50: > 100 µM (inactive)
Hs-578T
  GI50: > 100 µM (inactive)
BT-549
  GI50: > 100 µM (inactive)
UO-31
  GI50: > 100 µM (inactive)
SF-268
  GI50: > 100 µM (inactive)
RXF 393
  GI50: > 100 µM (inactive)
CCRF-CEM
  GI50: > 100 µM (inactive)
HT-29
  GI50: > 100 µM (inactive)
OVCAR-5
  GI50: > 100 µM (inactive)
NCI-H226
  GI50: > 100 µM (inactive)
IGROV-1
  GI50: > 100 µM (inactive)
LOX IMVI
  GI50: > 100 µM (inactive)
UACC-257
  GI50: > 100 µM (inactive)
CAKI-1
  GI50: > 100 µM (inactive)
MDA-N
  GI50: > 100 µM (inactive)
HCC 2998
  GI50: > 100 µM (inactive)
U-251
  GI50: > 100 µM (inactive)
K562
  GI50: > 100 µM (inactive)
ACHN
  GI50: > 100 µM (inactive)
TK-10
  GI50: > 100 µM (inactive)
NCI-H23
  GI50: > 100 µM (inactive)
